Each structure is given as a SMILES string. Where a name gives a salt, the structure may show the parent alone.

Among the data in patent publication US4499099A, “Nortropane and granatane type compounds useful in treating psychosis” (Beecham Group p.l.c., priority 1981, dated 1985) are ED50 values, retold here.

For the test, the system named is post-synaptic Dopamine (D.A.) receptors. Briefly: Inhibition of Apomorphine Induced Climbing in the Mouse. In kind it is in vivo. The following applies: male CD1 mice, apomorphine 1 mg/kg s.c., test compound administered subcutaneously 30 minutes prior to apomorphine (b213 says pre-treated orally), climbing scored at 10 and 20 minutes, read-out: ED50 (dose that produced a 50% inhibition of apomorphine-induced climbing). How it is done:
The results in the following table are on illustration of the anti-psychotic activity of the present compounds as shown by Inhibition of Apomorphine Induced Climbing in the Mouse, a standard test.
The test is based on that described by Protais, P., Constantin, J. and Schwartz J. C. (1976), Psychopharmacology, 50, 1-6.
When mice are given a dose of 1 mg/kg apomorphine and then placed in an enclosed environment, such as an inverted wire cage, they are seen to climb around the walls. This behavioural phenomenon is thought to be a consequence of the stimulation of post-synaptic Dopamine (D.A.) receptors in the nucleus accumbens. Inhibition of apomorphine induced climbing is therefore indicative of post-synaptic D.A. receptor blockade in the accumbens.
Groups of 10 male CD1 mice, weighing 25-30 g were pre-treated orally with either graded doses of the test compound or vehicle, at appropriate time intervals before the subcutaneous administration of a sub-maximal dose of apomorphine (1 mg/kg). Immediately after the apomorphine injection the mice were placed in wire `climbing cages` and each animal was scored for climbing behaviour at 10 and 20 minutes post apomorphine as follows:
Four paws on cage floor=0
The test compound was administered subcutaneously 30 minutes prior to administration of apomorphine.
The total score was calculated for each group of mice and expressed as a percentage inhibition of climbing. [formula]
ED50's and fiducial limits were calculated according to the method of Litchfield and Wilcoxon, the ED50 being the dose that produced a 50% inhibition of apomorphine--induced climbing.
For the compound `COc1cc(N)c(SC)cc1C(=O)N[C@@H]1C[C@H]2CC[C@@H](C1)N2Cc1ccccc1` [Example 1, 4-Amino-2-methoxy-5-methylthio-N-[3-β-(8-benzyl-8-azabicyclo(3,2,1)octyl)]benzamide], the ED50 was 0.66 mg/kg.

On to `COc1cc(N)c(SC)cc1C(=O)N[C@@H]1C[C@H]2CCC[C@@H](C1)N2Cc1ccc(F)cc1` [Example 2, 4-Amino-2-methoxy-5-methylthio-[N-(9-(4^1-fluorobenzyl)-9-azabicyclo(3.3.1)non-3β-yl)]benzamide], for which the median effective dose (ED50) worked out at 0.32 mg/kg.

For the compound `COc1cc(SC)cc(C(=O)N[C@@H]2C[C@H]3CC[C@@H](C2)N3Cc2ccccc2)c1OC` [Example 3, 2,3-Dimethoxy-5-methylthio-N[3β(8-benzyl-8-azabicyclo[3.2.1]octyl)]benzamide hydrochloride], the ED50 was found to be 0.44 mg/kg.

Turning to `COc1cc(SC)cc(C(=O)N[C@@H]2C[C@H]3CCC[C@@H](C2)N3Cc2ccc(F)cc2)c1OC` [Example 4, 2,3-dimethoxy-5-methylthio-[N-(9-(4^1-fluorobenzyl)-9-azabicyclo(3.3.1)non-3β-yl)]benzamide], the ED50 was 0.56 mg/kg.

For orientation: ED50 means the dose that gives a 50% effect, or the effect in half of the subjects.
